Assay results reported in patent publication US12655461B2 (priority 2020, dated 2026).

What was measured:
[1] = tested on: lac promoter in BL21 cells (pEC-GFP); assay: IPTG induction of GFP from lac promoter (pEC-GFP) in BL21 cells; assay type: cell-based, E. coli; settings: 0.01 mM and 0.1 mM IPTG, 24 hours
[2] = tested on: synthetic cyn promoter (pCyn-v2-GFP) in E. coli BW25113-Wt
[3] = tested on: E. coli cells; settings: LB media, 37° C., OD600
[4] = tested on: cyn promoter/operator regulated by cynR (pCyn-v1-GFP); assay: GFP expression from pCyn-v1-GFP (native cyn promoter) induced with cyanate or azide, flow cytometry and bulk lysate fluorescence; assay type: cell-based, E. coli; settings: 1 mM inducer

## CC(C)S[C@@H]1O[C@H](CO)[C@H](O)[C@H](O)[C@H]1O [IPTG]
[1]
  GFP expression at lower inducer concentrations over time: GFP expression increased with time and reached maximum after 24 hours

## [N-]=[N+]=[N-] [sodium azide]
[2]
  azide concentration until which GFP expression increased: 1 mM
  detection limit of the synthetic promoter for azide: > 10 µM
[3]
  azide amount showing dramatic influence on the growth of the cells: > 5 mM

## N#CO [sodium cyanate]
[4]; BW25113 wildtype, 19 hours, flow cytometry
  GFP fluorescence of induced cells compared to uninduced control: did not result in any GFP expression
[4]; ΔcynS strain (BW25113-sCB1)
  GFP expression of induced cells: recovered the GFP expression
